Blank lines part the entries; values can stand above or below the compound they belong to.
Columns and labels:
[1] = dog, in vivo, iv, 0.2 mg/kg
Description: Distribution of Prodrugs between PBMCs and Plasma in Dogs • Dogs were administered various prodrugs of cpr-PMEDAP as 0.2 mg/kg 30 minute IV infusions. […] Alanine was the L isomer. • Blood was collected into potassium EDTA and separated by centrifugation. Primary blood mononuclear cells (PBMCs) were collected using CPT tubes (sodium citrate). • For analysis, plasma samples were precipitated by addition of 100 μL acetonitirile containing internal standards (D4AP and TDF) to 100 μL of plasma for prodrug analysis. After protein precipitation by centrifugation, 100 μA was transferred into another tube to be dried and then reconstituted in 100 μL water with 0.2% formic acid. An aliquot of 20 μL was injected onto the column for LC/MS/MS analysis. Analysis was done using a 150×2.0 mm, 4 μm Synergi Fusion-RP 80A column (Phenomenex) and a multistage linear gradient from 0.5 to 99% acetonitrile in the presence of 0.2% formic acid at 0.25 mL/min. Analytes were detected using a Sciex API-4000 mass spectrometer using electrospray ionization in positive MRM mode. […] Separate aliquots of cells from each time point resuspended in 100% serum were used to establish the cell quantities in each sample. Cell samples were normalized to 15×10^6 cells per sample. Varying degrees of hemolyses have been observed. […] 20 μL was injected for LC/MS/MS analysis using a 50×2.0 mm, 4 μm Synergi Hydro-RP 80A column (Phenomenex) and a multistage linear gradient from 0 to 95% acetonitrile in the presence of 0.2% formic acid at 1.0 mL/min. Analytes were detected using a Sciex API-4000 mass spectrometer using electrospray ionization in positive MRM mode. • After drying, samples for dephosphorylation were treated with 1 U of calf intestinal phosphatase (alkaline phosphatase, Sigma) for 2 h in manufacturer provided buffer. Samples were then adjusted to 60% acetonitrile dried and resuspended in 60% acetonitrile containing internal standards (TDF and D4AP) and analyzed for cpr-PMEDAP as described for direct PBMC analysis.

Hygroscopicity = type: physicochemical; settings: solid form
[2] = Storage stability in aqueous solution; type: physicochemical; settings: 60 hours
Source text: Parenteral (sterile aqueous) solutions of the organic acid salts of compound 1 optionally comprise a stabilizing amount of carbohydrate, typically a saccharide (mono, di or polysaccharides), glycoside or sugar alcohol (alditols). Polysaccharides should be biodegradable upon parenteral injection or infusion and include dextrins and starches, typically 3-10 units. Representative carbohydrates include hexoses, aldoses, aldohexoses, aldotrioses (e.g. glyceraldehyde), aldotetroses (e.g. erythrose), aldopentoses (e.g. arabinose), ketoses, ketohexose (e.g. fructose), ketopentoses (e.g. ribulose), maltose, sucrose, lactose, ribose, xylose, lyxose, allose, altrose, glucose, mannose, gulose, idose, galactose and talose. Of particular interest are carbohydrates conventionally used in parenteral formulations, e.g., mannitol or dextrose. The optical character of the carbohydrate is not critical, but it is desirable for the configuration to be such that the carbohydrate is biodegradable upon parenteral administration. […] On the other hand, storage in buffered solutions at pH 2, 7 and 9 under the same conditions lead to substantial degradation of compound 1: About 100%,18% and 76% by weight, respectively.

[3] = Solubility of the succinate salt; type: physicochemical; settings: pH 4.2-4.7

Structure (SMILES): CC(C)OC(=O)[C@H](C)NP(=O)(COCCn1cnc2c(NC3CC3)nc(N)nc21)N[C@@H](C)C(=O)OC(C)C [BisAlaiPr]
PBMC to Plasma ratio [1]: 1.2

Structure (SMILES): CCOC(=O)C(C)NP(=O)(COCCn1cnc2c(NC3CC3)nc(N)nc21)NC(C)C(=O)OCC (stereo not drawn) [Compound 1]
Hygroscopicity (Hygroscopicity): hygroscopic

Structure (SMILES): CC(C)OC(=O)[C@H](C)NP(=O)(COCCn1cnc2c(NC3CC3)nc(N)nc21)Oc1ccccc1 (stereo partly drawn) [MonoAlaiPr]
PBMC to Plasma ratio [1]: 17

Next, values leading:

PBMC to Plasma ratio [1]: 19
Structure (SMILES): C[C@H](NP(=O)(COCCn1cnc2c(NC3CC3)nc(N)nc21)Oc1ccccc1)C(=O)OC(C)(C)C (single isomer, unassigned) [MonoAlatBu(A)]

PBMC to Plasma ratio [1]: 12
Structure (SMILES): C[C@H](NP(=O)(COCCn1cnc2c(NC3CC3)nc(N)nc21)Oc1ccccc1)C(=O)OC(C)(C)C (stereo partly drawn) [MonoAlatBu]

Degradation on storage ([2]; 5% dextrose (by weight of solution; pH about 4.2, unbuffered), 40° C.): without significant degradation
Degradation on storage ([2]; buffered solution pH 2, 40° C.): About 100 % by weight
Degradation on storage ([2]; buffered solution pH 9, 40° C.): ~76 % by weight
solubility [3]: > 39 mg/mL
Structure (SMILES): CCOC(=O)[C@H](C)NP(=O)(COCCn1cnc2c(NC3CC3)nc(N)nc21)N[C@@H](C)C(=O)OCC [compound 1 succinate]

From patent US8435969B2, “Method and compositions for treating hematological malignancies” (Gilead Sciences, Inc., priority 2006, dated 2013)
